In paper PMC12394179, “Re‐engineering a transferase scaffold for indole C3 methylation in diketopiperazines” (Protein Science : A Publication of the Protein Society, 2025):

Molecular target: T1, SeMT (Saccharopolyspora erythraea, UniProt A4FFC0)
T1 construct: gene SACE_3471; codon-harmonized synthetic gene in pET28a(+), E. coli BL21(DE3), Ni-NTA purified; dimer
T1 sequence (A4FFC0 1-266): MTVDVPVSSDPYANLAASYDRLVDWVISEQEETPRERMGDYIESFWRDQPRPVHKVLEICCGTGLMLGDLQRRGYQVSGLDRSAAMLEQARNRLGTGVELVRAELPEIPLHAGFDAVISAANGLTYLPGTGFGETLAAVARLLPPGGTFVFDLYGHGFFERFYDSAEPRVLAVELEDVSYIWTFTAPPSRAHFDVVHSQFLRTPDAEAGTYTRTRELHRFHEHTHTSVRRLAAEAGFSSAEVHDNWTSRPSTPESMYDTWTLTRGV
Assay: X-ray crystallography
Type: binding
Details: co-crystal with 2 mM SAH, pH 5.6 reservoir; cofactor site (product of methyl transfer)

For `Nc1ncnc2c1ncn2[C@@H]1O[C@H](CSCC[C@H](N)C(=O)O)[C@@H](O)[C@H]1O` [SAH], the X-ray crystallography was “the demethylated cofactor SAH (included in the sample for crystallization) is found embraced”.
